What was measured:
[1] = target: T1, 5-lipoxygenase (5-LO) enzyme (Homo sapiens, UniProt P09917); experiment: Measurement of 5-LO enzyme activity in cell free system prepared from human leukocytes (direct); assay type: biochemical; conditions: human polymorphonuclear leukocytes, 0.02 mM arachidonic acid, pH 7.5, 37° C., 5 minutes, read-out: 5-lipoxygenase enzyme inhibition, direct, IC50
T1 construct: the enzyme in the cytosol was partially purified by ammonium sulphate fractionation; endogenous in cells; host or cells: human polymorphonuclear leukocytes (sonicated, cytosol, ammonium sulphate fraction)
T1 sequence (P09917 1-674): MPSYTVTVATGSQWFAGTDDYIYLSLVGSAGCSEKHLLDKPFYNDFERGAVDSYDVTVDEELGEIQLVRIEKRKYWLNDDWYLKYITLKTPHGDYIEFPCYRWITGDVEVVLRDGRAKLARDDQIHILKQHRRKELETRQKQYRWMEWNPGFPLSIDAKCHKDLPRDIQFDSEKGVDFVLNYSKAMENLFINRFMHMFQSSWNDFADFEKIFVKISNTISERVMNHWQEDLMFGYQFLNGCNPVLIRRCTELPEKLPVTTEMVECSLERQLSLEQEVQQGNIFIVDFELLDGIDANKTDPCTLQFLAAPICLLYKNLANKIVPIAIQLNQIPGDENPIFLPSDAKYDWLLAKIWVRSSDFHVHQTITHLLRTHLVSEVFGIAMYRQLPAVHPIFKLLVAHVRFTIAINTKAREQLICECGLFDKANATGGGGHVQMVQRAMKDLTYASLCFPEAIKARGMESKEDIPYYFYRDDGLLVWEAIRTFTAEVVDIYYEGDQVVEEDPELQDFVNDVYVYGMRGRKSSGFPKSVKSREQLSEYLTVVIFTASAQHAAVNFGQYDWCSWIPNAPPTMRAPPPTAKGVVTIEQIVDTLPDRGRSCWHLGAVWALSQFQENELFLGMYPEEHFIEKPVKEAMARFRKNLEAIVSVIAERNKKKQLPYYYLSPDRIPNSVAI
Description: 1. Measurement of 5-LO enzyme activity in cell free system prepared from human leukocytes
The enzyme activity was measured according to the modified method of Ochi et al. [K. Ochi, T. Yoshimoto, S. Yamamoto, K. Taniguchi, T. Miyamoto: Arachidonate 5-lipoxygenase of guinea pig peritoneal polymorphonuclear leukocytes, J. Biol. Chem. 258, 5754-5758 (1983)]. The principle of the method is as follows: in in vitro systems, during the reaction catalysed by 5-LO 5-hydroxyperoxy-6,8,11,14-eicosatetraenoic acid (5-HPETE) is formed from arachidonic acid, then it is transformed to 5-hydroxy-6,8,11,14-eicosatetraenoic acid (5-HETE). Both 5-HPETE and 5-HETE have absorption maximum at 236 nm, therefore it is possible to determine the activity of 5-LO enzyme by measuring the change of absorption at 236 nm. 5-LO was prepared from human polymorphonuclear leukocytes by a simple purification procedure. The cells were washed and lysed by a sonic disintegrator. The lysate was centrifuged and the enzyme in the cytosol was partially purified by ammonium sulphate fractionation (the enzyme precipitates at 50% saturation). The reaction mixture (50 mM tris-HCl pH=7.5, 2mM CaCl2, 0.1 mM ATP, 0.02 mM arachidonic acid) was incubated at 37° C. for 5 minutes. The reaction was started with the addition of arachidonic acid and stopped by the addition of 10 mM of citric acid. The thus-obtained 5-HPETE and 5-HETE were extracted with a 6:4 mixture of diethyl ether and hexane and the absorption of the organic phase was measured by spectrophotometry at […].

[2] = target: T1, 5-lipoxygenase (5-LO) enzyme; experiment: Determination of 5-LO enzyme activity of human leukocytes by measuring their leukotriene B4 production (whole cell); assay type: cell-based; conditions: human PMN leukocytes, LTB4 release, ionophore A-23187 0.001 mM, pH 7.2, 37° C., 15 minutes, RIA; read-out: 5-lipoxygenase enzyme inhibition, in whole cell, IC50
Description: 2. Determination of 5-LO enzyme activity of human leukocytes by measuring their leukotriene B4 production
The method of Mia et al. was applied [H. Mita, Y. Yui and T. Shida: Effect of AA-861, a 5-lipoxygenase inhibitor on leukotriene synthesis in human polymorphonuclear leukocytes and on cyclooxygenase and 12-lipoxygenase activities in human platelets, Allergy 41, 493-498, (1986)]. The principle of the experiment is as follows: the calcium ionophore A-23187 induces the synthesis and the release of LTB4 by human polymorphonuclear leukocytes. The amount of LTB4 released into the incubation medium reflects the 5-LO enzyme activity of the intact cells. The incubation medium was Hank's balanced medium (HBBS) supplemented with 17 mM of Tris-HCl (pH 7.2), 1.22 mM of CaCl2, 1 mM of MgCl2, 0.001 mM of A-23187 and 10^4 PMN leukocyte per ml reaction mixture. The reaction was started with the addition of ionophore then incubated at 37° C. for 15 minutes. The reaction was stopped by adding 5 mM of EDTA and by chilling the samples in an ice bath. The samples were centrifuged and the amount of LTB4 in the supernatant was determined by radioiimmunoassay (RIA).

PAF lethality in mice = experiment: PAF induced anaphylactic shock test in mice (PAF lethality); assay type: in vivo; conditions: Mus musculus, ip, 1 h; male NMRI mice, intraperitoneal, 30 minutes before intravenous PAF 100 μg/kg, mortality at one hour; read-out: PAF lethality in mice ID50
Description: 4. PAF induced anaphylactic shock test in mice
A modification of the method of Young et al. [Young, J. M., Maloney, P. J., Jubb, S. N. and Clark, J. S.: Pharmacological investigation of the mechanism of platelet-activating factor mortality in the mouse, Prostaglandins 30, 545-551 (1985)] was used. The experiments were carried out in male NMRI mice weighing 20-25 g (10 animals/group). The test compounds were suspended in 0.4% methyl cellulose and administered intraperitoneally in a volume of 10 ml/kg. The mice of the control group received only vehicle. 30 minutes later the animals received intravenous PAF in a dose of 100 μg/kg (5 ml/kg). Mortality was determined one hour after PAF administration. Every experiment was repeated three times (n=30). The ratio of mortality of the treated animals was compared to that of the control mice. ID50 values were calculated by linear regression analysis.

[3] = test system: Ear oedema induced by arachidonic acid in mice; experiment: Ear oedema induced by arachidonic acid in mice; assay type: in vivo, NMRI strain); conditions: female NMRI mice, topical, 30 minutes before arachidonic acid (3 mg), measured 60 minutes later
Description: 3. Ear oedema induced by arachidonic acid in mice
Inflammation of ear was induced by arachidonic acid using a modified version of the procedure described by Young et al. [Young, J. M., Spires, D. A., Bedord, C. J., Wagner, B., Ballaron, S. J., De Young, L. M.: The mouse ear inflammatory response to topical arachidonic acid, J. Invest. Dermatol. 82, 67-371 (1984)]. The experiments were carried out in female mice from the NMRI strain weighing 25 to 30 g (8 animals/groups). Drugs were applied topically in acetone or ethanol by an automatic pipette in 10 μl volumes to both the inner and outer surfaces of the ear. 30 minutes after drug or vehicle administration both sides of the left ear were brushed with 3 mg of arachidonic acid in 20 μl of acetone and both sides of the right ear were treated with 20 μl of acetone only. 60 minutes later the animals were killed by aether, then a disk of 7 mm diameter was cut off both ears. The mass of each disk was measured by an analytical scale and the mean of the difference of the left and right ears was calculated for every group. ID50 values were determined by plotting the log-dose versus percentage response as compared to vehicle-treated animals.

SMILES	IC50 [1]	IC50 [2]	ED50 (PAF lethality in mice)	Arachidonic acid ear oedeme in mice ID50 [3]
Cc1c(C)c2c(c(C)c1O)[C@H]1CCC=C[C@H]1O2 (relative stereo) [Example 23, cis-1,3,4-Trimethyl-5a,8,9,9a-tetrahydrodibenzofurane-2-ol]	540 nM	140 nM	23.2 mg/kg	
O=C1CCN(c2ccccc2)N1 [Phenidone, 1-phenyl-3-pyrazolidinone, reference compound]			14.2 mg/kg	0.18 mg/ear
Cc1c(C)c2c(c(C)c1O)C1CCCCCC1O2 (stereo not drawn) [Example 10, 1,2,4-Trimethyl-4b,6,7,8,9,9a-hexahydro-5H-10-oxabenzo[a]azulene-3-ol]	99 nM	70 nM	22.5 mg/kg	0.16 mg/ear
CC1=C(C)C(=O)C(CCCCC#CCCCC#CCO)=C(C)C1=O [AA-861, 2-(12-hydroxy-5,10-dodecadiinyl)-3,5,6-trimethyl-p-benzoquinone, reference compound]	4100 nM	1100 nM	58.9 mg/kg	0.13 mg/ear
Cc1c(C)c2c(c(C)c1O)[C@@H]1CC=C[C@@H]1O2 (relative stereo) [Example 1, cis-4,6,7-Trimethyl-3a,8a-dihydro-3H-8-oxacyclopenta[a]indene-5-ol]	74 nM	680 nM	51.7 mg/kg	
Cc1c(C)c2c(c(C)c1O)[C@@H]1CCC[C@@H]1O2 (relative stereo) [Example 2, cis-4,6,7-Trimethyl-2,3,3 a,8a-tetrahydro-1H-8-oxacyclopenta[a]indene-5-ol]	390 nM	50 nM	16.2 mg/kg	0.18 mg/ear
CCOc1cc2c(cc1O)[C@@H]1CCC[C@@H]1O2 (relative stereo) [Example 8, cis-6-Ethoxy-2,3,3a,8a-tetrahydro-1H-8-oxa-cyclopenta[a]indene-5-ol]	490 nM		45 mg/kg	
Cc1c(O)cc2c(c1C)O[C@H]1CCC[C@@H]21 (relative stereo) [Example 4, cis-6,7-Dimethyl-2,3,3a,8a-tetrahydro-1H-8-oxacyclopenta[a]indene-5-ol]	1200 nM	300 nM	65.2 mg/kg	
COc1cc2c(cc1O)[C@@H]1CCC[C@@H]1O2 (relative stereo) [Example 6, cis-6-Methoxy-2,3,3a,8a-tetrahydro-1H-8-oxacyclopenta[a]indene-5-ol]	1200 nM		100 mg/kg	0.23 mg/ear
Cc1c(O)cc2c(c1C)O[C@H]1C=CC[C@@H]21 (relative stereo) [Example 3, cis-6,7-Dimethyl-3a,8a-dihydro-3H-8-oxacyclopenta[a]indene-5-ol]	5500 nM	500 nM		
CCOc1cc2c(cc1O)[C@@H]1CC=C[C@@H]1O2 (relative stereo) [Example 7, cis-6-Ethoxy-3a,8a-dihydro-3H-8-oxacyclopenta[a]indene-5-ol]	1700 nM	300 nM	27.3 mg/kg	0.11 mg/ear
CC(Cc1ccc(O)c(O)c1)C(C)Cc1ccc(O)c(O)c1 (stereo not drawn) [NDGA, 1,4-bis(3,4-dihydroxyphenyl)-2,3-dimethylbutane, reference compound]			29.2 mg/kg	> 1.0 mg/ear
COc1cc2c(cc1O)[C@@H]1CC=C[C@@H]1O2 (relative stereo) [Example 5, cis-6-Methoxy-3a,8a-dihydro-3H-8-oxacyclopenta[a]indene-5-ol]	2700 nM	300 nM		0.18 mg/ear

— patent US5716986A, “Oxaindene derivatives and process for the preparation thereof” (priority 1995, dated 1998)
